Three compounds from patent US9505709B2, “Compositions and methods relating to ionic salts of peptides” (Thetis Pharmaceuticals LLC, priority 2014, dated 2016) can be followed below.

A short description of data set [1]: Stability analysis by 1H NMR of samples exposed to air and light. As to conditions: ambient temperature.
Protocol: Stability analysis was performed using 1H NMR (400 MHz) with acetic acid-d4 at various time point (typically days 1, 14, 30 and 60) using samples exposed to air and light at ambient temperature (clear vials with no caps).
For another data set, the system named is Balb/C mice. Description: Ocular irritation after topical dosing to the cornea (hyperemia, squinting, discharge, lid swelling). As to conditions: for Hyperemia: 3 μL drop in each eye four times daily for 3 days; for Hyperemia at last dose / final evaluation: concentrations that showed an initial increase or all tested, last dose / final evaluation (Day 3); for Concentration at which not irritating / well tolerated: topical to cornea four times daily for 3 days. It counts as in vivo. How it is done:
In an embodiment where the ophthalmic formulation is an aqueous formulation, it has been determined in mice that certain formulations can be administered to the surface of the eye without producing irritation that would make them unsuitable for such application. Irritation parameters of TP-211-1, TP-212-1, TP-311-1 and TP-312-1 related to hyperemia, squinting, and discharge were determined in Balb/C mice. Mice were dosed topically to the cornea using a calibrated micropipette, with a 3 μL drop of treatment in each eye four times daily for 3 consecutive days at various concentrations.
TP-211-1 is Lysyl-lysine EPA. TP-212-1 is Lysyl-lysine bis-EPA. TP-311-1 is Lysyl-lysine DHA. TP-312-1 is Lysyl-lysine bis-DHA. The study drugs were prepared using phosphate buffered saline (PBS) to reach target concentrations ranging from 0.1% to 1.0%.
The animals were monitored for scratching at the eye or any other abnormal behavior post-dose. Ocular exams were conducted on Days 1 and 3 with use of a Micron III camera system to take high resolution videos of the right eye of each animal Clinical signs including but not limited to hyperemia, discharge, lid swelling, and squinting were evaluated by trained personnel who was masked as to group assignment. Each clinical sign was graded on a scale of 0-4, with the exception of lid swelling which was graded on a scale of 0-2. Scores were averaged and are expressed as the mean±SEM for each group. Statistical significance was assessed between the treatment arms and the vehicle group. Any significance is noted by asterisks (*=p<0.05, **=p<0.01, ***=p<0.001).

Data set [2] is described as follows: Intravenous injection pharmacokinetics, plasma free EPA or free DHA. It counts as in vivo, Sprague-Dawley rats. As to conditions: rat. How it is done:
Experiments via Intravenous Injection: TP-212 and TP-312 were administered by intravenous injection (20 mg/kg) to Sprague-Dawley rats (n=6/group—3 male and 3 female), and plasma was obtained from serial blood samples taken from each animal at scheduled times ([…]). Blood samples were centrifuged to separate red blood cells and the resulting plasma samples were analyzed for free EPA or free DHA. Free EPA or free DHA was extracted from rat plasma with hexane at acidic condition without hydrolysis. Detection was by MS-MS monitoring of negative ion for EPA or DHA. Calculated pharmacokinetic values are mean values from 6 rats for each study drug.
(§1) For all figures and tables, the data are adjusted as follows for comparative purposes. First, the actual plasma levels are baseline adjusted. Thus, for each study arm, the pre-dose level (time=0) is subtracted from the actual plasma levels at each time point, with negative values adjusted to zero. Second, these baseline adjusted values are further adjusted to be molar dose equivalent on a comparative basis among the study arms with respect to EPA or DHA payload (i.e., as if equal amounts of free fatty acid EPA or DHA are administered in each study arm).

Data set [3] can be described thus: Oral pharmacokinetics (oral gavage), plasma free EPA or free DHA. The class given is in vivo, Sprague-Dawley rats. As to conditions: rat. As to the method: Experiments via Oral Gavage: Oral pharmacokinetic parameters of TP-212 (Lysyl-Lysine Bis-EPA), TP-312 (Lysyl-Lysine Bis-DHA), EPA-EE, EPA FFA and DHA FFA were determined in Sprague-Dawley rats. EPA-EE is 97% pure ethyl ester form of eicosapentaenoic acid. It is the principal polyunsaturated fatty acid in Vascepa, an Omega-3 compound approved in the U.S. for the treatment of severe hypertriglyceridemia. EPA FFA is 97% pure free fatty acid form of eicosapentaenoic acid and DHA FFA is 98% pure free fatty acid DHA. EPA FFA and DHA FFA are the two principal poly-unsaturated fatty acids in Epanova, an Omega-3 compound approved in the U.S. for the treatment of severe hypertriglyceridemia. The subject drugs were administered by oral gavage as an aqueous solution in de-ionized water to 6 Sprague-Dawley rats per group (3 males and 3 females). Rats were dosed at 40 mg/kg. Blood samples were obtained from each rat by jugular vein catheter. Samples were collected at pre-dose and at 0.25, 0.5, 1, 2, 4, 8, 12 and 18 hours post dose. Blood samples were centrifuged to separate red blood cells and the resulting plasma samples were analyzed for free EPA or free DHA. Free EPA or […] extracted from rat plasma with hexane at acidic condition without hydrolysis. Detection was by MS-MS monitoring of negative ion for EPA or DHA. Calculated pharmacokinetic values are mean values from 6 rats for each study drug.
as §1

Setting [4] is: intravenous injection 20 mg/kg, molar dose equivalent, baseline adjusted.
[5] abbreviates: 0.5% concentration in PBS, topical to cornea.
Where [6] appears, read: 1.0% concentration in PBS, topical to cornea.
The mark [7] stands for this setting: oral gavage 40 mg/kg, molar dose equivalent, baseline adjusted.

Consider `CC/C=C\C/C=C\C/C=C\C/C=C\C/C=C\CCCC(=O)O.NCCCC[C@H](NC(=O)[C@@H](N)CCCCN)C(=O)O` [Compound 1, (L,L) Lysyl-lysine EPA salt (mono)], for which the “Stability by NMR (amount of sample remaining relative to original sample)” value in data set [1] (Day 3), in data set [1] (Day 14), in data set [1] (Day 30) and in data set [1] (Day 60) was 1 (1 = >95%) each time. The Hyperemia entry in the data set with Balb/C mice (0.1% concentration in PBS) was “maintained baseline levels of hyperemia throughout both evaluations”; with Balb/C mice (0.25% concentration in PBS), “maintained baseline levels of hyperemia throughout both evaluations”; in the data set with Balb/C mice (0.5% concentration in PBS) it was “some initial increase in hyperemia”. For the same compound, in the data set on Balb/C mice (all concentrations tested, topical to cornea), the Squinting entry was “no statistically significant changes in squinting”. Also, in the data set with Balb/C mice, the “Hyperemia at last dose / final evaluation” value is listed as “returned to baseline levels by the last dose on Day 3”. Also, the “Concentration at which not irritating / well tolerated” value with Balb/C mice is given as “less than 0.5%”.

On to `CC/C=C\C/C=C\C/C=C\C/C=C\C/C=C\CCCC(=O)O.CC/C=C\C/C=C\C/C=C\C/C=C\C/C=C\CCCC(=O)O.NCCCC[C@H](NC(=O)[C@@H](N)CCCCN)C(=O)O` [Compound 2, (L,L) Lysyl-lysine bis-EPA], for which the “Stability by NMR (amount of sample remaining relative to original sample)” value in data set [1] (Day 3), in data set [1] (Day 14), in data set [1] (Day 30) and in data set [1] (Day 60) was 1 (1 = >95%) in each case. The “Tmax (free EPA)” value amounted to 1 min in data set [2] (intravenous injection 20 mg/kg) and 30 min in data set [3] (oral gavage 40 mg/kg). Further, the “Plasma level of free EPA” value was determined as 0 ng/mL in data set [2] (intravenous injection 20 mg/kg, 0 min, molar dose equivalent, baseline adjusted); 34500 ng/mL in data set [2] (intravenous injection 20 mg/kg, 1 min, molar dose equivalent, baseline adjusted); 6600 ng/mL in data set [2] (intravenous injection 20 mg/kg, 5 min, molar dose equivalent, baseline adjusted); 6400 ng/mL in data set [2] (intravenous injection 20 mg/kg, 10 min, molar dose equivalent, baseline adjusted); 11400 ng/mL in data set [2] (intravenous injection 20 mg/kg, 15 min, molar dose equivalent, baseline adjusted); 8800 ng/mL in data set [2] (intravenous injection 20 mg/kg, 30 min, molar dose equivalent, baseline adjusted). The “Plasma level of free EPA” value came to 4600 ng/mL in data set [2] (intravenous injection 20 mg/kg, 60 min, molar dose equivalent, baseline adjusted); 2300 ng/mL in data set [2] (intravenous injection 20 mg/kg, 120 min, molar dose equivalent, baseline adjusted); 1800 ng/mL in data set [2] (intravenous injection 20 mg/kg, 240 min, molar dose equivalent, baseline adjusted); 0 ng/mL in data set [3] (oral gavage 40 mg/kg, 0 h (pre-dose), molar dose equivalent, baseline adjusted); 300 ng/mL in data set [3] (oral gavage 40 mg/kg, 0.25 h (15 min), molar dose equivalent, baseline adjusted); 9500 ng/mL in data set [3] (oral gavage 40 mg/kg, 0.5 h (30 min), molar dose equivalent, baseline adjusted). Also, the “Plasma level of free EPA” value in data set [3] (oral gavage 40 mg/kg, 1 h (60 min), molar dose equivalent, baseline adjusted) was 3900 ng/mL; in data set [3] (oral gavage 40 mg/kg, 2 h (120 min), molar dose equivalent, baseline adjusted), 3200 ng/mL; in data set [3] (oral gavage 40 mg/kg, 4 h (240 min), molar dose equivalent, baseline adjusted), 1500 ng/mL; in data set [3] (oral gavage 40 mg/kg, 8 h, molar dose equivalent, baseline adjusted), 600 ng/mL; in data set [3] (oral gavage 40 mg/kg, 12 h, molar dose equivalent, baseline adjusted) it was 0 ng/mL; in data set [3] (oral gavage 40 mg/kg, 18 h, molar dose equivalent, baseline adjusted), 0 ng/mL. Also, the results for the “AUC 0-1 hrs (free EPA)” value in data set [2] (setting [4]) and in data set [3] (setting [7]) were 8300 ng·h/mL and 4600 ng·h/mL, respectively. In addition, the “AUC 0-4 hrs (free EPA)” value in data set [2] (setting [4]) came out at 15900 ng·h/mL; in data set [3] (setting [7]), 12800 ng·h/mL. The results for the “Cmax (free EPA)” value in data set [2] (setting [4]) and in data set [3] (setting [7]) were 34500 ng/mL and 9500 ng/mL, respectively. The “AUC over 1 hour (free EPA), times greater than EPApo” value in data set [2] (intravenous vs oral gavage) is about 13.4 times. Besides, the “AUC over 1 hour (free EPA), times greater than TP-212po” value in data set [2] (intravenous vs oral gavage) is recorded as “approximately 1.8 times”. Besides, in data set [2] (intravenous vs oral gavage), the “AUC over 4 hours (free EPA), times greater than EPApo” value is recorded as about 5.1 times. Further, the “AUC over 4 hours (free EPA), times greater than TP-212po” value in data set [2] (intravenous vs oral gavage) is “approximately 1.2 times”. Besides, the “Cmax (free EPA), times greater than EPA-FFApo” value in data set [2] (intravenous vs oral gavage) is reported as about 27 times. Further, in data set [2] (intravenous vs oral gavage), the “Cmax (free EPA), times greater than TP-212po” value is “approximately 3.6 times”. Further, the Hyperemia entry with Balb/C mice (0.5% concentration in PBS) and with Balb/C mice (1.0% concentration in PBS) was “increase in hyperemia (but not squinting) after the first dose” in each case. For the same compound, the Squinting result in the data set on Balb/C mice (setting [5]) and with Balb/C mice (setting [6]) was “not squinting” each time. The “Irritation, overall conclusion” value in the data set on Balb/C mice (concentrations of less than 1.0%, topical to cornea, repeat dosing) is “may cause some initial irritation upon the very first installation, but the animals acclimated well to repeat dosing”. The “Hyperemia at last dose / final evaluation” value in the data set with Balb/C mice was “returned to baseline levels by the final evaluation”. Moreover, the “AUC 0-18 hrs (free EPA)” value in data set [3] (setting [7]) was determined as 18300 ng·h/mL. In data set [3] (oral gavage), the “AUC over 18 hours (free EPA), times greater than EPA-EE” value is “approximately 2.6 times”. Moreover, in data set [3] (oral gavage), the “AUC over 18 hours (free EPA), times greater than EPA-FFA” value is listed as about 1.8 times. The “Cmax (free EPA), times greater than EPA-EE” value in data set [3] (oral gavage) is given as “approximately 8.9 times”. For the same compound, in data set [3] (oral gavage), the “Cmax (free EPA), times greater than EPA-FFA” value was about 7.4 times.

Regarding `CC/C=C\C/C=C\C/C=C\C/C=C\C/C=C\C/C=C\CCC(=O)O.NCCCC[C@H](NC(=O)[C@@H](N)CCCCN)C(=O)O` [Compound 3, (L,L) Lysyl lysine DHA (mono)], the “Stability by NMR (amount of sample remaining relative to original sample)” value in data set [1] (Day 3), in data set [1] (Day 14), in data set [1] (Day 30) and in data set [1] (Day 60) was 1 (1 = >95%) in each case. Besides, the Hyperemia entry in the data set on Balb/C mice (0.5% concentration in PBS) is given as “did not cause any increase in hyperemia or squinting throughout”; with Balb/C mice (1.0% concentration in PBS) it was “elevated hyperemia after the first dose administration”. Moreover, the values for the Squinting entry in the data set on Balb/C mice (setting [5]) and with Balb/C mice (setting [6]) were “did not cause any increase in hyperemia or squinting throughout” and “no increase in squinting levels”, respectively. Also, the “Concentration at which not irritating / well tolerated” value in the data set on Balb/C mice is reported as “less than 1.0%”.
